Assays:
MV-4-11 cells = test: MV-4-11 cell proliferation assay (MTS); assay type: cell-based; conditions: Homo sapiens, MV4-11, 72 h, 3 days culture
Description: 2. Cell Proliferation Assay
MV-4-11 cell proliferation analysis was conducted by the MIS (3-(4,5-dimethylthiazol-2-yl)-5-(3-carboxymethoxyphenyl)-2-(4-sulfophenyl)-2H-tetrazolium, inner salt) assay. Briefly, MV-4-11 cells will be cultured in IMDM (Iscove's Modified Dubecco's Medium) medium supplemented with 10% (v/v) FBS (fetal bovine serum), under the temperature of 37° C., […] and 95% humidity. The cells will be harvested respectively during the logarithmic growth period and counted with hemocytometer. The cell viability is over […] by trypan blue exclusion. Adjust MV-4-11 cells concentrations to 1.2×10^5 cells/mL with complete medium. Add 100 μL cell suspensions to 96-well plates (triplicates for each cell concentration), the final cell densities are 1.2×10^4 cells/well. The next day, dissolve the test compound with DMSO as stock solution. Dispense 5 μL of the stock solution in 1 mL culture media and add 25 μL drug media into 96-well plates. After serially diluting with culture media, the final concentration of the compound will be 0, 0.03, 0.1, 0.3, 1, 3, 10, 30, 100 nM. The plates will be cultured for 3 days, then measured by means of MTS assay. Add PMS (phenazinium methosulfate) solution to MITS solution (1:20) immediately before addition to the culture plate containing cells. Pipet 20 μL of the combined MTS/PMS Solution into each well of the 96 well assay plate containing 100 μL of cells in culture medium. Incubate the plate for 1-4 hours at 37° C. in a humidified, 5% CO2 atmosphere. Record the absorbance at 490 nm using a microplate spectrophotometer (Envision®, PeikinElmer). Fit the data using GraphPad 5.0 and obtain IC50 values.

BRD4(BD1) = BRD4(BD1) (Homo sapiens (Human), UniProt O60885); test: BRD4(BD1) biochemical binding assay (HTRF); conditions: biotinylated H4 derived acetylated peptide
Description: 1. BRD4(BD1) Binding Assays
The BRD4(BD1) biochemical binding assay was performed by Sundia MediTech Co. Ltd. in 384-well white plate (OptiPlate-384, PerkinElmer) using HTRF technology.
Briefly, 20 nL of compounds were transferred to the 384-well plate by Echo® 550 liquid handler (Labcyte, USA), then 5 μL of BRD4(BD1) (Reaction Biology Company, RD-11-157) solution or the assay buffer was added to each well. After incubating at RT for 15 min, 5 μL of the biotinylated H4 derived acetylated peptide (synthesized by GL Biochem (Shanghai) Ltd) and 10 μL of the detection solution (Cisbio Assay) were added to each well. After incubating for 1 h at RT, the HTRF signal was measure at 615 nm and 665 nm using the EnVision Multilabel Plate Reader (PerkinElmer, USA). Results were analyzed with a two-wavelength signal ratio: intensity (665 nm)/intensity (615 nm). The inhibition percentage in the presence of the compound was calculated according to the equation, Percent inhibition=(Max−Signal)/(Max−Min)*100%. Fit the data in GraphPad Prism V5.0 software (San Diego, Calif.) to obtain IC50 values with nonlinear regression analysis using equation, Y=Bottom+(Top−Bottom)/(1+10^((Log IC50−X)×HillSlope), where Y stands for inhibition percentage and X stands for compound concentration.

| SMILES | IC50 (MV-4-11 cells) [nM] | IC50 (BRD4(BD1)) [nM] |
| --- | --- | --- |
| Cc1nnn(C)c1-c1cnc2c3c(c(C(C)(C)O)nn3C)n(C(CCC(F)(F)F)c3ccccc3)c2c1 (stereo not shown) [Compound 3, 2-(6-(1,4-Dimethyl-1H-1,2,3-triazol-5-yl)-1-methyl-4-(4,4,4-trifluoro-1-phenylbutyl)-1,4-dihydropyrazolo[3′,4′:4,5]pyrrolo[3,2-b]pyridin-3-yl)propan-2-ol] | 6.06 | 0.66 |
| Cc1nnn(C)c1-c1cnc2c3c(c(C(C)(C)O)nn3C)n(C(CCC(F)(F)F)c3ncccc3F)c2c1 (stereo not shown) [Compound 4, 2-(6-(1,4-Dimethyl-1H-1,2,3-triazol-5-yl)-1-methyl-4-(4,4,4-trifluoro-1-(3-fluoropyridin-2-yl)butyl)-1,4-dihydropyrazolo[3′,4′:4,5]pyrrolo[3,2-b]pyridin-3-yl)propan-2-ol] | 3.13 | 0.57 |
| Cc1nc(C(C2CCOCC2)n2c3cc(-c4c(C)nnn4C)cnc3c3c2c(C(C)(C)O)nn3C)co1 (stereo not shown) [Compound 12, 2-(6-(1,4-Dimethyl-1H-1,2,3-triazol-5-yl)-1-methyl-4-((2-methyloxazol-4-yl)(tetrahydro-2H-pyran-4-yl)methyl)-1,4-dihydropyrazolo[3′,4′:4,5]pyrrolo[3,2-b]pyridin-3-yl)propan-2-ol] | 10.5 | 1.6 |
| Cc1nnn(C)c1-c1cnc2c3c(c(C(C)(C)O)nn3C)n([C@H](c3ccccc3)C3CCOCC3)c2c1 [Compound 6, (S)-2-(6-(1,4-dimethyl-1H-1,2,3-triazol-5-yl)-1-methyl-4-(phenyl(tetrahydro-2H-pyran-4-yl)methyl)-1,4-dihydropyrazolo[3′,4′:4,5]pyrrolo[3,2-b]pyridin-3-yl)propan-2-ol] | 1.1 | 0.49 |
| CNC(=O)c1nn(C)c2c3ncc(-c4c(C)nnn4C)cc3n(C(c3ccccc3)C3CCOCC3)c12 (stereo not shown) [Compound 17, 6-(1,4-dimethyl-1H-1,2,3-triazol-5-yl)-N,1-dimethyl-4-(phenyl(tetrahydro-2H-pyran-4-yl)methyl)-1,4-dihydropyrazolo[3′,4′:4,5]pyrrolo[3,2-b]pyridine-3-carboxamide] | 12.7 | 0.55 |
| Cc1nnn(C)c1-c1cnc2c3c(c(C(C)(C)O)nn3C)n([C@H](c3ncccc3F)C3CCOCC3)c2c1 [Compound 7, (S)-2-(6-(1,4-dimethyl-1H-1,2,3-triazol-5-yl)-4-((3-fluoropyridin-2-yl)(tetrahydro-2H-pyran-4-yl)methyl)-1-methyl-1,4-dihydropyrazolo[3′,4′:4,5]pyrrolo[3,2-b]pyridin-3-yl)propan-2-ol] | 0.7 | 0.97 |
| Cc1ccccc1C(C1CCOCC1)n1c2cc(-c3c(C)noc3C)cnc2c2c1c(C(C)(C)O)nn2C (stereo not shown) [Compound 9, 2-(6-(3,5-dimethylisoxazol-4-yl)-1-methyl-4-((tetrahydro-2H-pyran-4-yl)(o-tolyl)methyl)-1,4-dihydropyrazolo[3′,4′:4,5]pyrrolo[3,2-b]pyridin-3-yl)propan-2-ol] | 5.01 | 0.99 |
| Cc1nnn(C)c1-c1cnc2c3c(c(C(N)=O)nn3C)n(C(c3ccccc3)C3CCOCC3)c2c1 (stereo not shown) [Compound 16, 6-(1,4-Dimethyl-1H-1,2,3-triazol-5-yl)-1-methyl-4-(phenyl(tetrahydro-2H-pyran-4-yl)methyl)-1,4-dihydropyrazolo[3′,4′:4,5]pyrrolo[3,2-b]pyridine-3-carboxamide] | 3.6 | 0.3 |
| Cc1nnn(C)c1-c1cnc2c3c(c(C(C)(C)O)nn3C)n(C(CCC(F)(F)F)c3cocn3)c2c1 (stereo not shown) [Compound 10, 2-(6-(1,4-dimethyl-1H-1,2,3-triazol-5-yl)-1-methyl-4-(4,4,4-trifluoro-1-(oxazol-4-yl)butyl)-1,4-dihydropyrazolo[3′,4′:4,5]pyrrolo[3,2-b]pyridin-3-yl)propan-2-ol] | 34 | 2.2 |
| Cc1nnn(C)c1-c1cnc2c3c(c(C(C)(C)N)nn3C)n(C(c3ccccc3)C3CCOCC3)c2c1 (stereo not shown) [Compound 18, 2-(6-(1,4-Dimethyl-1H-1,2,3-triazol-5-yl)-1-methyl-4-(phenyl(tetrahydro-2H-pyran-4-yl)methyl)-1,4-dihydropyrazolo[3′,4′:4,5]pyrrolo[3,2-b]pyridin-3-yl)propan-2-amine] | 3.93 | 1.1 |
| Cc1nnn(C)c1-c1cnc2c3c(c(C(=O)N(C)C)nn3C)n(C(c3ccccc3)C3CCOCC3)c2c1 (stereo not shown) [Compound 15, 6-(1,4-Dimethyl-1H-1,2,3-triazol-5-yl)-N,N,1-trimethyl-4-(phenyl(tetrahydro-2H-pyran-4-yl)methyl)-1,4-dihydropyrazolo[3′,4′:4,5]pyrrolo[3,2-b]pyridine-3-carboxamide] | 25.1 | 0.61 |

— patent US11466005B2, “Tricyclic compounds” (JACOBIO PHARMACEUTICALS CO., LTD., priority 2018, dated 2022)
